Literature values, collected in patent publication US20240217930A1 (priority 2021, published 2024).

Key:
[1] = trials performed in cats; cited from earlier work
live virus = details: cited from earlier work
[2] = system: ten further coronavirus strains; details: read-out: Ki against ten further coronavirus strains; cited from earlier work

CC(C)C[C@H](NC(=O)OCc1ccccc1)C(=O)N[C@@H](C[C@@H]1CCNC1=O)C(O)S(=O)(=O)[O-].[Na+] (stereo partly drawn) [GC376]
side effects in cats [1]: has shown side effects

PF-00835231
activity in cell-based live virus assays (live virus): ~1 µM | Ki [2]: 0.03 to 4 nM
